Results as given in US20100087477A1, “SELECTIVE GLYCOSIDASE INHIBITORS” (priority 2006, published 2010).
Read-outs that look alike come from different tables or passages of the source.

Assays:
[1] = target: bacterial O-GlcNAcase (bOGA) (NagJ from Clostridium perfringens) (Clostridium perfringens, UniProt Q8XL08); experiment: biochemical; design: Ratio a/b: reference not given here
[2] = target: mixture of the human placental hexosaminidases HexA/HexB; experiment: Steady state kinetics of hexosaminidases A and B with 4MU-GlcNAc; type: biochemical
OGA = target: T1, OGA (Homo sapiens, UniProt O60502); details: background, literature; cited from earlier work
T1 sequence (O60502 1-916): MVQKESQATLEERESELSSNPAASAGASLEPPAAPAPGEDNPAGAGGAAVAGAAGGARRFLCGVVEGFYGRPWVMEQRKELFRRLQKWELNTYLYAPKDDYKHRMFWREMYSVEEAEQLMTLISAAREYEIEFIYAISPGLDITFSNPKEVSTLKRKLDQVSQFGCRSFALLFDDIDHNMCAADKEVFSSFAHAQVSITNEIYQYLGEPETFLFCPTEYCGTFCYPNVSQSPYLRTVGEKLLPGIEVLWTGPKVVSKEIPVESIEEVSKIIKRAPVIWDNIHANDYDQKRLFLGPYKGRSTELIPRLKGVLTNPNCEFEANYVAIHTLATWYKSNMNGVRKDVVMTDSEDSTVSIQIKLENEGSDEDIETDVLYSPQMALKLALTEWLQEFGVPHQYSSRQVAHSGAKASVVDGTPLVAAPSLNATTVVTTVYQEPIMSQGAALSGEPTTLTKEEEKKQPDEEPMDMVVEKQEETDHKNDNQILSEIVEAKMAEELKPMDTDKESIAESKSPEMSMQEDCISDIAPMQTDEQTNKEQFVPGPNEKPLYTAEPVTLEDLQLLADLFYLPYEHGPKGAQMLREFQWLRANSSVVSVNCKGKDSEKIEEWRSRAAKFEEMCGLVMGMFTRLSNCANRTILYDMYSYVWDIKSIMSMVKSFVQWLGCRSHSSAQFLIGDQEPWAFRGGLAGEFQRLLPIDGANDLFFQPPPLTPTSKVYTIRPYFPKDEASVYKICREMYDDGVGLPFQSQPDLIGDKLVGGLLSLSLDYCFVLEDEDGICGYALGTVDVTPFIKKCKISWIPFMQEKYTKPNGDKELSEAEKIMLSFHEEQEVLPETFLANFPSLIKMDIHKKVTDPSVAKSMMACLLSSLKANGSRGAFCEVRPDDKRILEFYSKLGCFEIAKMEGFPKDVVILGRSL

[3] = test system: human lysosomal hexosaminidases HexA and HexB; details: background, literature; cited from earlier work
human OGA (hOGA) = target: T2, human OGA (hOGA) (Homo sapiens, UniProt O60502); experiment: Inhibition of human OGA (hOGA), methodology similar to bOGA; type: biochemical
T2 sequence (O60502 1-916): T1 sequence (O60502 1-916)

bOGA = bOGA (Clostridium perfringens, UniProt Q8XL08); type: biochemical
HEK 293 cells = experiment: Immunoblot: O-GlcNAc levels in treated HEK 293 cells; type: cell-based, human; details: FIG. 4B
[4] = read-out: Ki values (in M) a) hexosaminidases

Chain of bacterial O-GlcNAcase (bOGA) (NagJ from Clostridium perfringens) (Q8XL08 31-1001 limits assumed): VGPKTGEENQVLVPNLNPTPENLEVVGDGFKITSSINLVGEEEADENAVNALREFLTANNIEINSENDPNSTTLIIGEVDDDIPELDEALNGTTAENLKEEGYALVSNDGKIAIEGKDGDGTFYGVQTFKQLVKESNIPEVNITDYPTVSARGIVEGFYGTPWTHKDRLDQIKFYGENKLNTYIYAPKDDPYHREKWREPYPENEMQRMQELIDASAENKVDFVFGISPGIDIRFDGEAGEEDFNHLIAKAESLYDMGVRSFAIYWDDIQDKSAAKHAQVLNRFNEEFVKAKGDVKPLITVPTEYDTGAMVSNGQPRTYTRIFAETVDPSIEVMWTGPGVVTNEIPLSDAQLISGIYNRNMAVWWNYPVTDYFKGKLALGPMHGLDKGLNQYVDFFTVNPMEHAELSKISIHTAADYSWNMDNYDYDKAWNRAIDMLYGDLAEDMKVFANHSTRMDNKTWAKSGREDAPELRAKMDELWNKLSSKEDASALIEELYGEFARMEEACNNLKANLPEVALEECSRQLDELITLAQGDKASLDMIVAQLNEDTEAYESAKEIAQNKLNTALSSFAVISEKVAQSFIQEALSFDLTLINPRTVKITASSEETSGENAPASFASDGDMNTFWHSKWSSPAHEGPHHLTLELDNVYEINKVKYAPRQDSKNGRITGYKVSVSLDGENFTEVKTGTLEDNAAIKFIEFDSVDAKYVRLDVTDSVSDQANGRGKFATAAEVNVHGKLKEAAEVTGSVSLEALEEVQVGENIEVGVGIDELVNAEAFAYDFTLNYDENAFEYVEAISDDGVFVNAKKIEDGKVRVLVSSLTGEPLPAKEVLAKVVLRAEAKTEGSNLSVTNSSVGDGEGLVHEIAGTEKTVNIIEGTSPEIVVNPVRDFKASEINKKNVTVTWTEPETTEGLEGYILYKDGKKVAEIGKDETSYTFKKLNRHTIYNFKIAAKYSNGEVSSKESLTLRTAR
Chain of bOGA (Q8XL08 31-1001 limits assumed): as above

SMILES | Ki [1] [nM] | Ratio a/b [1] | Ki [2, 4] [nM] | inhibition of OGA (in words) (OGA) | other results
CCC(=O)NC1c2nc(CCc3ccccc3)cn2C(CO)[C@@H](O)[C@@H]1O (stereo partly drawn) [Compound IV] | 0.011 | 440 | 4.8 | – | –
CC(=O)N[C@H]1/C(=N/OC(=O)Nc2ccccc2)O[C@H](CO)[C@@H](O)[C@@H]1O [PUGNAc, O-(2-acetamido-2-deoxy-D-glucopyrano-sylidene)amino-N-phenylcarbamate] | – | – | – | nanomolar inhibitor | inhibition of HexA and HexB (in words) [3]: potent inhibitor
CC(=O)NC1c2nc(C(=O)Nc3ccccc3)cn2C(CO)[C@@H](O)C1O (stereo partly drawn) [A] | – | – | – | only acts at the micromolar level | –
CC(=O)NC1c2nc(CCc3ccccc3)cn2C(CO)[C@@H](O)[C@@H]1O (stereo partly drawn) [Compound III] | 0.0078 | 256 | 2 | – | –
COC(=O)Cc1cn2c(n1)C(NC(C)=O)[C@@H](O)[C@H](O)C2CO (stereo partly drawn) [V, reference compound] | 0.003 | 2500 | 7.5 | – | –
CC(C)C(=O)NC1c2nc(CCc3ccccc3)cn2C(CO)[C@@H](O)C1O (stereo partly drawn) [Compound II] | 0.0046 ± 0.0002 | 108000 | – | – | Ki ([2]; HexA/HexB mixture, read-out: Ki values (in M) a) hexosaminidases): 500 nM; Ki ([2]; placental hexosaminidases, 0-400 nM inhibitor, FIG. 3, read-out: Ki): 520 ± 70 nM; inhibition of hOGA (in words) (human OGA (hOGA)): active against human OGA; IC50 (human OGA (hOGA); hOGA, FIG. 5): 8 nM; inhibition of hOGA (in words) (human OGA (hOGA); listed as GlcNacstain): more potent inhibitor than PUGNac; activity in inhibiting bOGA from removing O-GlcNAc from proteins (bOGA): more active than PUGNAc; raising O-GlcNAc levels (HEK 293 cells): more efficient at raising O-GlcNAc levels than PUGNAc
